“And” between values parts separate entries of the source, which are not always exact repeats. Equal entries are not always repeated. Where two headings read alike, the source gives them in different places.
Legend:
[1] = tested on: phospho-IGF-IR; assay: Western blotting, IGF-IR phosphorylation after serum-starvation; format: cell-based; details: PC-9, RPC-9, NCI-H1299, NCI-H1819; regardless of IGF-I ligand stimulation; TAE226 two hours
Procedure: Next, they were washed out with cold PBS and lysed in 1 × cell lysis buffer [20 mM Tris-HCl (pH 7.5), 150 mM NaCl, 1 mM Na2EDTA, 1 mM EGTA, 1% Triton, 2.5 mM sodium pyrophosphate, 1 mM beta-glycerophosphate, 1 mM Na3VO4, 1 μg/ml leupeptin] (Cell signaling Technology) supplemented with Complete, Mini (Roche, Basel, Switzerland) to extract protein. After the protein concentration was measured, equal amounts of total protein (30 μg) were separated by SDS-PAGE and transferred to PVDF membranes. The proteins on membranes were incubated overnight at 4°C with the primary antibodies. The following secondary antibodies were used: goat antirabbit or antimouse IgG-conjugated horseradish peroxidase (HRP) (Santa Cruz Biotechnology, Santa Cruz, CA). To detect specific signals, the membranes were incubated by ECL plus Western Blotting Detection Reagents (Amersham Biosciences UK Limited, Buckinghamshire, UK).

[2] = tested on: Flt-4; design: method as in earlier work; details: updated data; cited from earlier work
[3] = tested on: c-Met; details: updated data; cited from earlier work
[4] = tested on: JAK-2; design: method as in earlier work; details: updated data; cited from earlier work
[5] = tested on: CDK1/cyclin B; design: method as in earlier work; details: updated data; cited from earlier work
[6] = tested on: RPC-9; assay: MTS assay, RPC-9
Procedure: (§1) Drug sensitivity was determined by a modified MTS assay with CellTiter 96 AQueous One Solution Reagent (Promega, Madison, WI). Cells were generally seeded on 96-well plates at a density that would yield 80% confluence by the completion of the experiment, varying by each cell line from 3000 to 4000 per well. […] After that, MTS dye was added to each well. The cultures were incubated for another 1 hour at 37°C in a humidified atmosphere with 5% CO2. Optical densities of samples were measured at 490 nm using Immuno Mini NJ-2300 (Nalge Nunc International KK, Rochester, NY). Mean optical density at each drug concentration was calculated after discarding the highest and lowest values. […] IC50 values were expressed as mean and standard deviations. The assays were repeated until the standard deviation became less than the mean.

[7] = tested on: NCI-H838; assay: MTS assay, NCI-H838
Procedure: as §1

Structure (SMILES): CNC(=O)c1ccccc1Nc1nc(Nc2ccc(N3CCOCC3)cc2OC)ncc1Cl [TAE226]
- phosphorylation of IGF-IR after serum-starvation [1]: completely inhibited
- IC50 [2]: 220 nM
- IC50 [3]: 160 nM
- IC50 [4]: 840 nM
- IC50 [5]: 540 nM
- IC50 ([6]; read-out: IC50 (μM) (mean ± SD), RPC-9, EGFR Exon 19 del (E746-A750) + T790M, MTS, TAE226 48 hours, gefitinib 72 hours): 0.31 ± 0.03 µM
- IC50 ([6]; read-out: each IC50, RPC-9, independent MTS assays): 0.35 µM and 0.33 µM and 0.28 µM and 0.27 µM
- IC50 ([7]; read-out: IC50 (μM) (mean ± SD), NCI-H838, no alterations, MTS, TAE226 48 hours, gefitinib 72 hours): 6.2 ± 0.02 µM
- IC50 ([7]; read-out: each IC50, NCI-H838, independent MTS assays): 6.3 µM and 6.2 µM
- IC50 ([7]; read-out: mean IC50, NCI-H838, mean of independent MTS assays): 6.2 µM

From paper PMC4474554 (PLoS ONE, 2015)
